These results are taken from PMC6006850, “Assessment of new HDAC inhibitors for immunotherapy of malignant pleural mesothelioma” (Clinical Epigenetics, 2018).

By IC50 is commonly meant the midpoint of a concentration-inhibition curve.

Data set [1] concerns natural killer cells (NK) (CD56+, CD16+). Briefly: Flow cytometry of natural killer cell proportion in treated lymphocytes. The format is cell-based, human. The procedure: (§1) For flow cytometry experiments, lymphocytes were seeded at 4 × 10^5cells/well in a flat-bottomed 96-well plate in 180 μl RPMI 1640 8% HS. […]
(§2) The day of analysis, cells were stained in a conical-bottomed 96-well plate at 10^5 cells/well. The plate was centrifuged at 800×g for 1 min, and the pellets were washed using 200 μl/well of PBS containing BSA 0.1% (wash buffer). Antibodies (see Additional file 2: Table S2) were used at a dilution of 1/30 in the wash buffer, and then, the plate was incubated at 4 °C for 30 min. Later, two washings were performed using the wash buffer prior to flow cytometry analysis. All flow cytometry data were acquired with FACScalibur (BD biosciences) using the CellQuest software (BD Biosciences) and analyzed by FlowJo software.
(§3) The aim of our strategy is to induce an anti-tumor immune response to cure malignant pleural mesothelioma by using combinations of epigenetic drugs including HDACi. Therefore, it was necessary to study the effect of these HDACi on sub-populations of lymphocytes implicated in this immune response. […] Toxicity of the compounds was tested on natural killer cells (NK) (CD56+, CD16+), on regulatory T-cells (Treg) (CD4+, CD25+, CD127 low and Foxp3+), on CD4 and CD8 naïve T-cells (CD4+, CCR7+ and CD45RA+, and CD8+, CCR7+ and CD45RA+, respectively), and on CD4 and CD8 memory T cells (CD4+ and CD45RO+, and CD8+ and CD45RO+, respectively).
(Flow cytometry measures light scatter and fluorescence of single cells or particles in a stream.)

In data set [2] the test system is regulatory T-cells (Treg) (CD4+, CD25+, CD127 low and Foxp3+). In words: Flow cytometry of regulatory T cell proportion in treated lymphocytes. The format is cell-based, human. The note with it: decitabine alone 500 nM, 72 h. The protocol: as §1, §2, §3
Another data set concerns MDA5 mRNA. In words: MDA5 mRNA expression in MPM cells by real time PCR. The note with it: decitabine alone. Background: In qPCR the cycle at which signal appears reflects the starting amount.
The next data set deals with PD-L1 (B7-H1) mRNA. Briefly: PD-L1 mRNA expression in MPM cells by real time PCR. The note with it: for PD-L1 expression: two additional MPM cell lines (Meso34 and Meso45), molecule alone; for PD-L1 mRNA: HDACi 48 h combined with decitabine 500 nM (72 h pretreatment).
The subject of the next data set is RIG-1 mRNA. In words: RIG-1 mRNA expression in MPM cells by real time PCR. The note with it: decitabine alone.
The next data set concerns CD8 T-cell clones. Briefly: Cell viability (CellTiter-Glo) of CD8 T-cell clones treated with HDACi, with or without decitabine. The format is cell-based, human. Also on record: AUC (Area Under the Curve) T-CD8 clones - 5-aza: unit not given beside the values. The following applies: for IC50: Homo sapiens, T-cell; for AUC (Area Under the Curve) T-CD8 clones + 5-aza 500nM / AUC (Area Under the Curve) T-CD8 clones - 5-aza: viability dose-response curve; for AUC (Area Under the Curve) T-CD8 clones + 5-aza 500nM: decitabine 500 nM pretreatment; for AUC (Area Under the Curve) T-CD8 clones - 5-aza: no decitabine. A general note: In ATP-based viability assays light output follows the ATP content of the culture.

The conditions of data set [3]: cited from earlier work.
In a further data set the test system is lymphocytes. Briefly: Cell viability (CellTiter-Glo) of lymphocytes treated with HDACi, with or without decitabine. Also on record: hematological toxicity: dose or concentration left out as unconfirmed; AUC (Area Under the Curve) Lymphocytes - 5-aza: unit not given beside the values. The note with it: for AUC (Area Under the Curve) Lymphocytes + 5-aza 500nM / AUC (Area Under the Curve) Lymphocytes - 5-aza: viability dose-response curve; for AUC (Area Under the Curve) Lymphocytes + 5-aza 500nM: decitabine 500 nM pretreatment; for AUC (Area Under the Curve) Lymphocytes - 5-aza: no decitabine.

Where two headings read alike, the source gives them in different places.

Description for CD8 T-cell clones: For dose-response experiments, lymphocytes were seeded at 4 × 10^5 cells/well in RPMI 1640 8% HS in flat-bottomed 96-well plates, and CD8 T-cell clones were seeded at 50 × 10^3 cells/well in 180 μl RPMI 1640 8% HS containing 150 IU IL-2. The treatments were carried out 24 h after seeding by adding decitabine at 500 nM for 72 h; then, HDACi treatments were performed for additional 48 h.
After treatments, cell viability was measured using CellTiter-Glo kit (Promega) according to the manufacturer’s protocol.
Description for MDA5 mRNA: (§4) All real-time PCR reactions were performed using the Mx3005P QPCR Systems (Stratagen Products, Agilent Technologies), and the amplifications were done using the SYBR Green PCR Master Mix SAB bioscience (Qiagen) mixed with Oligonucleotides QuantiTect Primer (Qiagen). The thermal cycling conditions were composed of 1 cycle at 95 °C for 10 min, 40 cycles at 95 °C for 30 s and 60 °C for 1 min, and 1 cycle at 95 °C for 1 min, 60 °C for 30 s, and 95 °C for 30 s. The experiments were carried out in duplicate for each data point. All the qPCR data were analyzed by MxPro software.
Description for PD-L1 (B7-H1) mRNA: as §4
Description for RIG-1 mRNA: as §4

As to `Nc1ncn([C@H]2C[C@H](O)[C@@H](CO)O2)c(=O)n1` [decitabine, 5-Aza-2′-deoxycytidine], the “effect on NK proportion” value in data set [1] (decitabine alone 500 nM, 72 h) is recorded as “reduced moderately”. In data set [2], the “effect on Treg proportion” value was “reduced moderately”. Besides, the “MDA5 mRNA expression” value with MDA5 mRNA (Meso34) was “increased significantly”; in the data set with MDA5 mRNA (Meso45) it was “increased significantly”; in the data set on MDA5 mRNA (Meso96) it was “not”. The “mRNA expression of PD-L1” value in the data set on PD-L1 (B7-H1) mRNA (Meso96, decitabine alone 500 nM) is “did not affect”. The PD-L1 expression entry in the data set with PD-L1 (B7-H1) mRNA is “increased”. For the same compound, the “RIG-1 mRNA expression” value is “increased significantly” in the data set on RIG-1 mRNA (Meso34), “increased significantly” in the data set on RIG-1 mRNA (Meso45) and “not” with RIG-1 mRNA (Meso96).
For `CCCC(CCC)C(=O)O` [VPA, valproic acid], the IC50 with CD8 T-cell clones (read-out: IC50 T-CD8 clones + Decitabine 500 nM, decitabine 500 nM 72 h pretreatment, then 48 h HDACi) was determined as 0.02 mM. Besides, in the data set on CD8 T-cell clones (48 h HDACi, no decitabine pretreatment, read-out: IC50 T-CD8 clones − Decitabine), the IC50 worked out at 3.8 ± 0.06 mM. Further, in the data set on CD8 T-cell clones, the “AUC (Area Under the Curve) T-CD8 clones + 5-aza 500nM” value worked out at 60.52 and the “AUC (Area Under the Curve) T-CD8 clones - 5-aza” value was 216.8. In addition, the “decrease of the proportion of NK cells” value in data set [1] (in comparison to untreated lymphocytes, 48 h, VPA 5 mM, SAHA 1 μM, ODB 32 μM, NODB 8 μM, ODH 4 μM, NODH 50 nM) is “more than 50%”. Also, in data set [3] (patients, clinical trials), the “blood concentrations observed during treatments” value is on record as “approximately 1 mM”. Moreover, in the data set on PD-L1 (B7-H1) mRNA (Meso96), the “PD-L1 mRNA” value is “significant increase”. Moreover, the PD-L1 expression entry in the data set on PD-L1 (B7-H1) mRNA is given as “increased”. In the data set on lymphocytes ((blood concentration observed during treatments)), the hematological toxicity entry is on record as “weak hematological toxicity”. Moreover, in the data set with lymphocytes, the “AUC (Area Under the Curve) Lymphocytes + 5-aza 500nM” value is recorded as 208.5 and the “AUC (Area Under the Curve) Lymphocytes - 5-aza” value is given as 248.3.
As for `O=C(CCCCCCC(=O)Nc1ccccc1)NO` [SAHA, Suberoylanilide hydroxamic acid], in the data set with CD8 T-cell clones, the “AUC (Area Under the Curve) T-CD8 clones + 5-aza 500nM” value turned out to be 35.07 and the “AUC (Area Under the Curve) T-CD8 clones - 5-aza” value is on record as 112.2. For the same compound, the “clinical doses measured in blood from patients” value in data set [3] is 1 to 4 µM. For the same compound, the “blood concentrations reach in clinic” value in data set [3] (patients, clinical trials) is “approximately 1 μM”. In the data set on PD-L1 (B7-H1) mRNA (Meso96), the “PD-L1 mRNA” value is on record as “significant increase”. Besides, the PD-L1 expression result with PD-L1 (B7-H1) mRNA is “increased”. Besides, the “toxicity for lymphocytes and CD8 T-cells” value in the data set on lymphocytes (at clinical doses measured in blood from patients (approximately 1 to 4 μM)) is “toxic”. The cells survived entry in the data set with lymphocytes (lymphocytes, highest dose of compound, in the presence or not of decitabine) was “approximately 40%”. Further, in the data set with lymphocytes, the “AUC (Area Under the Curve) Lymphocytes + 5-aza 500nM” value is listed as 183.9 and the “AUC (Area Under the Curve) Lymphocytes - 5-aza” value turned out to be 200.5.
